The values that follow come from patent publication US20250296939A1, “BENZOTHIOPHENE COMPOUND” (Kyoto Pharmaceutical Industries, Ltd., priority 2022, published 2025).

For experiment [1], the target named is GST-fused human Keap1 (amino acid residues: 325-642) protein (Homo sapiens (Human), UniProt Q14145). Nature of the experiment: FP assay (in vitro): inhibition of binding between Nrf2 and Keap1 by fluorescence polarization. The conditions noted are these: 20 nM GST-fused human Keap1, 10 nM FITC-labeled Nrf2 peptide, 2 hr at room temperature.
GST-fused human Keap1 (amino acid residues: 325-642) protein, sequence (Q14145 325-624 limits assumed): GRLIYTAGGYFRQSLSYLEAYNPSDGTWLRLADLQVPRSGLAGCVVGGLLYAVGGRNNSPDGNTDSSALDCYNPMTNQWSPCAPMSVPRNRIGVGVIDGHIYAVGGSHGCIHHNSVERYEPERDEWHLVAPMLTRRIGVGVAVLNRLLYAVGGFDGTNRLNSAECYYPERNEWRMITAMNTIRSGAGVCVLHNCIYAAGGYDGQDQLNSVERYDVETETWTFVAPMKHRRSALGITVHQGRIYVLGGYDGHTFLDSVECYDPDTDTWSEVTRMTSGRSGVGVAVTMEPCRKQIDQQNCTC
For experiment [2], the system named is NQO1 activity in Hepa1c1c7 cells. Nature of the experiment: NAD(P)H: quinone oxidoreductase-1 (NQO1) enzyme induction assay (in vitro). The class given is cell-based, mouse. As to conditions: Mus musculus, Hepa-1c1c7, NQO1 activity upon addition of 400 nM of test compound, about 48 hr, ratio from the base without the compound. An outline of the steps:
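Mouse Hepa1c1c7 hepatoma cells were treated with 400 nM compound for about 48 h, then lysed with digitonin/EDTA. NQO1 activity was measured as menadione-mediated MTT reduction with a G6P/G6PDH NADPH-regenerating system, stopped with dicoumarol, and read at A610. Values are the activity ratio versus untreated base wells.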

As for `Cc1c([C@H](CC(=O)O)c2cc(CN3Cc4nc(O)ccc4O[C@@H](C4CC4)C3)c3sccc3c2)ccc2c1nnn2C` [Example 8, (3R)-3-(7-{[(2S)-2-Cyclopropyl-7-hydroxy-2,3-dihydropyrido[2,3-f][1,4]oxazepin-4(5H)-yl]methyl}-1-benzothiophen-5-yl)-3-(1,4-dimethyl-1H-benzotriazol-5-yl)propanoic acid], the IC50 (as a rule, the concentration needed to halve the response being measured) in experiment [1] was in the range of 30 to 300 nM. Besides, in experiment [2], the fold induction (commonly the ratio of treated to control signal) at 0.4 µM lay in the range of 3 to 5.

Consider `CC[C@H]1Cc2ccc(O)nc2CN(Cc2cc([C@H](CC(=O)O)c3cc(C)c4c(nnn4C)c3C)cc3ccsc23)C1` [Example 86, (3S)-3-(7-{[(6S)-6-Ethyl-2-hydroxy-5,6,7,9-tetrahydro-8H-pyrido[2,3-c]azepin-8-yl]methyl}-1-benzothiophen-5-yl)-3-(1,4,7-trimethyl-1H-benzotriazol-5-yl)propanoic acid], for which, in experiment [1], the IC50 is no more than 10 nM. Besides, the fold induction at 0.4 µM in experiment [2] is greater than 5.

Consider `Cc1c(C(CC(=O)O)c2cc(CN3Cc4nc(N)ccc4OC4(CC4)C3)c3sccc3c2)cnc2c1nnn2C` (stereo not shown) [Example 71, 3-{7-[(7′-Amino-3′H-spiro[cyclopropane-1,2′-pyrido[2,3-f][1,4]oxazepin]-4′ (5′H)-yl)methyl]-1-benzothiophen-5-yl}-3-(3,7-dimethyl-3H-[1,2,3]triazolo[4,5-b]pyridin-6-yl)propanoic acid], for which the concentration for half-maximal inhibition (IC50) in experiment [1] fell in the range of 10 to 30 nM. Besides, the fold induction at 0.4 µM in experiment [2] was greater than 5.

In experiment [1], `CC[C@H]1Cc2ccc(O)nc2CN(Cc2cc([C@@H](CC(=O)O)c3cnc4c(nnn4C)c3C)cc3ccsc23)C1` [Example 80, (3R)-3-(3,7-Dimethyl-3H-[1,2,3]triazolo[4,5-b]pyridin-6-yl)-3-(7-{[(6S)-6-ethyl-2-hydroxy-5,6,7,9-tetrahydro-8H-pyrido[2,3-c]azepin-8-yl]methyl}-1-benzothiophen-5-yl)propanoic acid] returned an IC50 of 10 to 30 nM. Further, the fold induction at 0.4 µM in experiment [2] is greater than 5.

Compound `CC[C@@H]1CN(Cc2cc([C@@H](CC(=O)O)c3ccc4c(nnn4CC(C)(C)O)c3C)cc3ccsc23)Cc2nc(O)ccc2O1` [Example 19, (3R)-3-(7-{[(2R)-2-Ethyl-7-hydroxy-2,3-dihydropyrido[2,3-f][1,4]oxazepin-4(5H)-yl]methyl}-1-benzothiophen-5-yl)-3-[1-(2-hydroxy-2-methylpropyl)-4-methyl-1H-benzotriazol-5-yl]propanoic acid] returned a half-inhibitory concentration (IC50) in experiment [1] of 30 to 300 nM. The fold induction at 0.4 µM in experiment [2] lay in the range of 3 to 5.

`CC[C@@H]1CN(Cc2cc([C@H](CC(=O)O)c3cc(OC(F)(F)F)c4c(nnn4C)c3C)cc3ccsc23)Cc2nc(O)ccc2O1` [Example 42, (3S)-3-[1,4-Dimethyl-7-(trifluoromethoxy)-1H-benzotriazol-5-yl]-3-(7-{[(2R)-2-ethyl-7-hydroxy-2,3-dihydropyrido[2,3-f][1,4]oxazepin-4(5H)-yl]methyl}-1-benzothiophen-5-yl)propanoic acid] yielded an IC50 in experiment [1] of no more than 10 nM. Further, the fold induction at 0.4 µM in experiment [2] was greater than 5.

Consider `CC[C@@H]1CN(Cc2cc([C@@H](CC(=O)O)c3cc(C4CC4)c4c(nnn4C)c3C)cc3ccsc23)Cc2nc(O)ccc2O1` [Example 35, (3R)-3-(7-Cyclopropyl-1,4-dimethyl-1H-benzotriazol-5-yl)-3-(7-{[(2R)-2-ethyl-7-hydroxy-2,3-dihydropyrido[2,3-f][1,4]oxazepin-4(5H)-yl]methyl}-1-benzothiophen-5-yl)propanoic acid], for which the 50% inhibitory concentration (IC50) in experiment [1] was 10 to 30 nM. Moreover, the fold induction at 0.4 µM in experiment [2] was greater than 5.

In experiment [1], `CC[C@@H]1CN(Cc2cc([C@H](CC(=O)O)c3cc(Cl)c4c(nnn4C)c3C)cc3ccsc23)Cc2nc(O)ccc2O1` [Example 32, (3S)-3-(7-Chloro-1,4-dimethyl-1H-benzotriazol-5-yl)-3-(7-{[(2R)-2-ethyl-7-hydroxy-2,3-dihydropyrido[2,3-f][1,4]oxazepin-4(5H)-yl]methyl}-1-benzothiophen-5-yl)propanoic acid] yielded a half-inhibitory concentration (IC50) of 10 to 30 nM. In addition, the fold induction at 0.4 µM in experiment [2] is greater than 5.

With `CC[C@@H]1CN(Cc2cc(C(CC(=O)O)c3ccc4c(nnn4C)c3C)cc3ccsc23)Cc2nc(C(F)(F)F)ccc2O1` (stereo partly drawn) [Example 93, 3-(1,4-Dimethyl-1H-benzotriazol-5-yl)-3-(7-{[(2R)-2-ethyl-7-(trifluoromethyl)-2,3-dihydropyrido[2,3-f][1,4]oxazepin-4(5H)-yl]methyl}-1-benzothiophen-5-yl)propanoic acid], in experiment [1], the 50% inhibitory concentration (IC50) was no more than 10 nM. Further, the fold induction at 0.4 µM in experiment [2] was greater than 5.

`CC[C@@H]1CN(Cc2cc(C(CC(=O)O)c3ccc4c(nnn4C)c3C)cc3ccsc23)Cc2ncc(O)cc2O1` (single isomer, unassigned) [Example 65, (3R*)-3-(1,4-Dimethyl-1H-benzotriazol-5-yl)-3-(7-{[(2R)-2-ethyl-8-hydroxy-2,3-dihydropyrido[2,3-f][1,4]oxazepin-4(5H)-yl]methyl}-1-benzothiophen-5-yl)propanoic acid] showed a half-maximal inhibitory concentration (IC50) in experiment [1] of 30 to 300 nM. The fold induction at 0.4 µM in experiment [2] is greater than 5.

In experiment [1], `Cc1c([C@H](c2cc(CN3Cc4nc(O)ccc4O[C@H](C4CC4)C3)c3sccc3c2)C(C)(C)C(=O)O)ccc2c1nnn2C` [Example 14, (3S)-3-(7-{[(2R)-2-Cyclopropyl-7-hydroxy-2,3-dihydropyrido[2,3-f][1,4]oxazepin-4(5H)-yl]methyl}-1-benzothiophen-5-yl)-3-(1,4-dimethyl-1H-benzotriazol-5-yl)-2,2-dimethylpropanoic acid] showed a concentration for half-maximal inhibition (IC50) of no more than 10 nM. In experiment [2], the fold induction at 0.4 µM was greater than 5.

Take `Cc1c([C@H](CC(=O)O)c2cc(CN3Cc4nc(O)ccc4O[C@H](C(F)(F)F)C3)c3sccc3c2)ccc2c1nnn2C` [Example 37, (3R)-3-(1,4-Dimethyl-1H-benzotriazol-5-yl)-3-(7-{[(2S)-7-hydroxy-2-(trifluoromethyl)-2,3-dihydropyrido[2,3-f][1,4]oxazepin-4(5H)-yl]methyl}-1-benzothiophen-5-yl)propanoic acid]: the 50% inhibitory concentration (IC50) in experiment [1] was in the range of 10 to 30 nM. The fold induction at 0.4 µM in experiment [2] was greater than 5.

Regarding `CC[C@@H]1CN(Cc2cc([C@H](CC(=O)O)c3cc(C4CC4)c4c(nnn4C)c3C)cc3ccsc23)Cc2nc(O)ccc2O1` [Example 36, (3S)-3-(7-Cyclopropyl-1,4-dimethyl-1H-benzotriazol-5-yl)-3-(7-{[(2R)-2-ethyl-7-hydroxy-2,3-dihydropyrido[2,3-f][1,4]oxazepin-4(5H)-yl]methyl}-1-benzothiophen-5-yl)propanoic acid], the half-maximal inhibitory concentration (IC50) in experiment [1] lay in the range of 10 to 30 nM. Moreover, the fold induction at 0.4 µM in experiment [2] is greater than 5.

In the case of `CC[C@@H]1CN(Cc2cc([C@@H](CC(=O)O)c3cc(Cl)c4c(nnn4C)c3C)cc3ccsc23)Cc2nc(O)ccc2O1` [Example 31, (3R)-3-(7-Chloro-1,4-dimethyl-1H-benzotriazol-5-yl)-3-(7-{[(2R)-2-ethyl-7-hydroxy-2,3-dihydropyrido[2,3-f][1,4]oxazepin-4(5H)-yl]methyl}-1-benzothiophen-5-yl)propanoic acid], in experiment [1], the IC50 is no more than 10 nM. Further, in experiment [2], the fold induction at 0.4 µM is greater than 5.

On to `CC[C@@H]1CN(Cc2cc([C@H](CC(=O)O)c3cnc4c(nnn4C)c3C)cc3ccsc23)Cc2nc(N)ccc2O1` [Example 68, (3S)-3-(7-{[(2R)-7-Amino-2-ethyl-2,3-dihydropyrido[2,3-f][1,4]oxazepin-4(5H)-yl]methyl}-1-benzothiophen-5-yl)-3-(3,7-dimethyl-3H-[1,2,3]triazolo[4,5-b]pyridin-6-yl)propanoic acid], for which the IC50 in experiment [1] fell in the range of 10 to 30 nM. Besides, the fold induction at 0.4 µM in experiment [2] is greater than 5.

In experiment [1], `Cc1c([C@H](CC(=O)O)c2cc(CN3Cc4nc(O)ccc4O[C@H](C4CC4)C3)c3sccc3c2)cnc2c1nnn2C` [Example 10, (3R)-3-(7-{[(2R)-2-Cyclopropyl-7-hydroxy-2,3-dihydropyrido[2,3-f][1,4]oxazepin-4(5H)-yl]methyl}-1-benzothiophen-5-yl)-3-(3,7-dimethyl-3H-[1,2,3]triazolo[4,5-b]pyridin-6-yl)propanoic acid] showed an IC50 of 10 to 30 nM. The fold induction at 0.4 µM in experiment [2] was greater than 5.

Regarding `Cc1c([C@@H](CC(=O)O)c2cc(CN3Cc4nc(O)ccc4O[C@@H](C(F)(F)F)C3)c3sccc3c2)ccc2c1nnn2C` [Example 40, (3S)-3-(1,4-Dimethyl-1H-benzotriazol-5-yl)-3-(7-{[(2R)-7-hydroxy-2-(trifluoromethyl)-2,3-dihydropyrido[2,3-f][1,4]oxazepin-4(5H)-yl]methyl}-1-benzothiophen-5-yl)propanoic acid], the concentration for half-maximal inhibition (IC50) in experiment [1] was in the range of 300 to 3000 nM. Moreover, the fold induction at 0.4 µM in experiment [2] was in the range of 1.5 to 3.

In experiment [1], `Cc1c([C@H](CC(=O)O)c2cc(CN3Cc4nc(O)ccc4O[C@H](C)C3)c3sccc3c2)ccc2c1nnn2C` [Example 16, (3R)-3-(1,4-Dimethyl-1H-benzotriazol-5-yl)-3-(7-{[(2R)-7-hydroxy-2-methyl-2,3-dihydropyrido[2,3-f][1,4]oxazepin-4(5H)-yl]methyl}-1-benzothiophen-5-yl)propanoic acid] gave a 50% inhibitory concentration (IC50) of 30 to 300 nM. The fold induction at 0.4 µM in experiment [2] was greater than 5.

The compound `CC[C@@H]1CN(Cc2cc([C@@H](CC(=O)O)c3ccc4c(nnn4CC(F)(F)F)c3C)cc3ccsc23)Cc2nc(O)ccc2O1` (single isomer, unassigned) [Example 27] came in with an IC50 in experiment [1] of 10 to 30 nM. Also, in experiment [2], the fold induction at 0.4 µM was greater than 5.

Consider `Cc1c(C(CC(=O)O)c2cc(CN3Cc4nc(O)ccc4OC4(CC4)C3)c3sccc3c2)ccn2c(C)nnc12` (stereo not shown) [Example 54, 3-(3,8-Dimethyl[1,2,4]triazolo[4,3-a]pyridin-7-yl)-3-{7-[(7′-hydroxy-3′H-spiro[cyclopropane-1,2′-pyrido[2,3-f][1,4]oxazepin]-4′(5′H)-yl)methyl]-1-benzothiophen-5-yl}propanoic acid], for which, in experiment [1], the concentration for half-maximal inhibition (IC50) was 10 to 30 nM. Also, the fold induction at 0.4 µM in experiment [2] was 3 to 5.
